Test [1] has as its target T1, Endothelin-1 receptor (Sus scrofa, UniProt Q29010).
T1 sequence (Q29010 whole entry): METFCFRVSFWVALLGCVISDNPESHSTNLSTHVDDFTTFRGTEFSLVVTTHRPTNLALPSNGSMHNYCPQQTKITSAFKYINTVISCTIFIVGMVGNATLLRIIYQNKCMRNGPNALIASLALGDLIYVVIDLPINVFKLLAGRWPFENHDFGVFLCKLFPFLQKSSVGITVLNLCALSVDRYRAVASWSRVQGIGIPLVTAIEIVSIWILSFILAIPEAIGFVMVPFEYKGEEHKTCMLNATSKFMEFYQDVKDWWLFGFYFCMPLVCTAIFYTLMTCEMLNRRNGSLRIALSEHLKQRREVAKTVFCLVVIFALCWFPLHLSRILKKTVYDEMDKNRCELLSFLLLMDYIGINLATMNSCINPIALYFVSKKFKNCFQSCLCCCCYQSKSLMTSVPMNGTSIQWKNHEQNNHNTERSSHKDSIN
Briefly: Ability to inhibit [125I]ET1 binding to endothelin A receptor in porcine aortic membrane. Type of test: cell membranes.

Test [2] addresses T2, Endothelin receptor type B (Homo sapiens, UniProt P24530).
T2 sequence (P24530 whole entry): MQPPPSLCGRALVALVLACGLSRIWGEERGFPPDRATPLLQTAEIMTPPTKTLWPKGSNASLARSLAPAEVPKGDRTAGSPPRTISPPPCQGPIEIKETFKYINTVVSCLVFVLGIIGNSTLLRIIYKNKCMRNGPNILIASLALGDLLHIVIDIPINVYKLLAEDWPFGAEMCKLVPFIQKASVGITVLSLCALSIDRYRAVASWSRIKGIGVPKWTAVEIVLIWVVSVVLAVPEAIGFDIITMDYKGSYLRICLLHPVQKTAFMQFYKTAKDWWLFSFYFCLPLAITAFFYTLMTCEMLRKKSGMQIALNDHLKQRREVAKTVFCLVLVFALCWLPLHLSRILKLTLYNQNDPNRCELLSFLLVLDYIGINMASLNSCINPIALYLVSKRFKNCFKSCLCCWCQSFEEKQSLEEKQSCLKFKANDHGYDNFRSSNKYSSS
Briefly: Ability to inhibit [125I]-ET-1 binding to human cloned ETB receptors expressed on CHO cells. Type of test: cell-based.

Test [3] deals with T3, Endothelin-1 receptor (Homo sapiens, UniProt P25101).
T3 sequence (P25101 whole entry): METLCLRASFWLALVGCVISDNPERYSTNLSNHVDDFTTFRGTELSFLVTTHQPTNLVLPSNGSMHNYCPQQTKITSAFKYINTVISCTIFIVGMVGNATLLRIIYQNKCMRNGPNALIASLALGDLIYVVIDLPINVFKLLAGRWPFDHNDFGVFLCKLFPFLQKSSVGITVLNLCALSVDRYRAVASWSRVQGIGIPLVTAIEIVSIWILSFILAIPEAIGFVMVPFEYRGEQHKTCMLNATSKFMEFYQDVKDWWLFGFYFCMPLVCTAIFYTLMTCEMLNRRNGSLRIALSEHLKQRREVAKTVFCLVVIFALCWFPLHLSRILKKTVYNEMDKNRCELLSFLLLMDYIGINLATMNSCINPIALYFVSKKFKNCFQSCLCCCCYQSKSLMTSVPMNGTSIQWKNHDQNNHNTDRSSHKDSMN
In words: Ability to inhibit [125I]ET1 binding to human cloned endothelin A receptor expressed on CHO cells. Type of test: cell-based.

Test [4] is described as follows: Ability to inhibit specific binding of [125I]- -ET-1 to rat A 10 cells which express endothelin A receptor.
Test [5] addresses T2, Endothelin receptor type B. In words: Ability to inhibit specific binding of [125I]- -ET-1 to human GH cells which express endothelin B receptor. The format is cell-based.

Broadly, the IC50 is the midpoint of a concentration-inhibition curve. A low value points to greater potency in that assay. Take `CSc1cnc(OCCOc2ncnc(NS(=O)(=O)c3ccc(C(C)(C)C)cc3)c2-c2ccc(C)cc2)nc1`: on Endothelin-1 receptor [1], the half-inhibitory concentration (IC50) was less than 0.001 nM.
Still for that read-out and setting: in the case of `CSc1cnc(OCCOc2ncnc(NS(=O)(=O)c3ccc(C(C)(C)C)cc3)c2-c2ccc(C(=O)O)cc2)nc1` it was more than 10 nM.
Same read-out and setting: in the case of `CSc1cnc(OCCOc2ncnc(NS(=O)(=O)c3ccc(C(C)(C)C)cc3)c2-c2ccc(CO)cc2)nc1` it was 0.04 nM.
Same read-out and setting: in the case of `CC(C)(C)c1ccc(S(=O)(=O)Nc2ncnc(OCCOc3ncc(Br)cn3)c2-c2ccc(CO)cc2)cc1` it was 0.04 nM.
One may read the Ki as the equilibrium dissociation constant of an inhibitor or competing ligand from its target. Read a high Ki as lower affinity. On to `Cc1ccc(-c2c(NS(=O)(=O)c3ccc(C(C)(C)C)cc3)ncnc2OCCOc2ncc(Br)cn2)cc1`, for which the Ki in test [2] came out at 130 nM; on Endothelin-1 receptor [3] it was 0.0042 nM. The IC50 is less than 0.001 nM on Endothelin-1 receptor [1] and 0.039 nM in test [4].
In the case of `Cc1ccc(-c2c(NS(=O)(=O)c3ccc(C(C)(C)C)cc3)ncnc2OCCOc2ncc(CO)cn2)cc1`, in test [5], the IC50 is 31 nM. This counts as double-digit nanomolar.
At Endothelin-1 receptor [1], `Cc1ccc(-c2c(NS(=O)(=O)c3ccc(C(C)(C)C(=O)O)cc3)ncnc2OCCOc2ncc(Br)cn2)cc1` had an IC50 of 1.4 nM.
Same read-out and setting: under `Cc1ccc(-c2c(NS(=O)(=O)c3ccc(C(C)(C)C)cc3)ncnc2OCCOc2ncc(C(=O)O)cn2)cc1` stands more than 10 nM.
